Results published in patent US7485652B2, “Indolyl derivatives as liver-X-receptor (LXR) modulators” (Hoffmann-La Roche Inc., priority 2004, dated 2009).

Legend:
[1] = target: T1, human LXR alpha (Homo sapiens, UniProt Q13133); experiment: Radioligand binding assay (scintillation proximity), LXR alpha; settings: GST-LXRα-LBD on SPA beads, radioligand displacement; read-out: LXRalpha Binding IC50
T1 construct: human LXR alpha (aa 164 to 447); made in house; host or cells: E. coli BL21(pLysS)
T1 sequence (Q13133 164-447): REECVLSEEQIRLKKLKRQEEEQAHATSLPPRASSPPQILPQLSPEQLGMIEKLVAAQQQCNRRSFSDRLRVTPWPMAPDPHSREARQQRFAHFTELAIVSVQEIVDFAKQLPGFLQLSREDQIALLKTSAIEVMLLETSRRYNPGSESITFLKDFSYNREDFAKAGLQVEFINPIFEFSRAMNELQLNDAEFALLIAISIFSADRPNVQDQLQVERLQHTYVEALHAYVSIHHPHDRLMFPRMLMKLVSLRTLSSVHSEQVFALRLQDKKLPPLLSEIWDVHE
Description: (§1) The following tests were carried out in order to determine the activity of the compounds of the present invention. Background information on the performed assays can be found in: Nichols J S et al. “Development of a scintillation proximity assay for peroxisome proliferator-activated receptor gamma ligand binding domain”, Anal Biochem. 1998, 257: 112-119.
(§2) Mammalian expression vectors were constructed to express full-length human LXR alpha and LXR beta. Bacterial expression vectors were constructed to produce glutathione-s-transferase (GST) fused to the ligand binding domains (LBD) of human LXR alpha (aa 164 to 447) and human LXR beta (aa 155 to 460). To accomplish this, the portions of the sequences encoding the LBDs were amplified from full-length clones by PCR and then subdoned into the plasmid vectors. Final clones were verified by DNA sequence analysis (Willy et al., Genes Dev. 1995, 9:1033-45; Song et al., Proc Natl Acad Sci USA.1994, 91:10809-13). […]
(§3) LXR alpha and LXR beta receptor binding were assayed in buffer consisting of 50 mM HEPES, pH 7.4, 10 mM NaCl, 5 mM MgCl2. […] All binding assays were performed in 96-well plates and the amount of bound ligand was measured on a Packard TopCount using OptiPlates (Packard). Dose response curves were measured within a range of concentration from 10^−10 M to 10^−4 M.

[2] = target: T2, human LXR beta (Homo sapiens, UniProt P55055); experiment: Radioligand binding assay (scintillation proximity), LXR beta; settings: GST-LXR beta-LBD on SPA beads, radioligand displacement; read-out: LXRbeta Binding IC50
T2 construct: human LXR beta (aa 155 to 460); made in house; host or cells: E. coli BL21(pLysS)
T2 sequence (P55055 155-460): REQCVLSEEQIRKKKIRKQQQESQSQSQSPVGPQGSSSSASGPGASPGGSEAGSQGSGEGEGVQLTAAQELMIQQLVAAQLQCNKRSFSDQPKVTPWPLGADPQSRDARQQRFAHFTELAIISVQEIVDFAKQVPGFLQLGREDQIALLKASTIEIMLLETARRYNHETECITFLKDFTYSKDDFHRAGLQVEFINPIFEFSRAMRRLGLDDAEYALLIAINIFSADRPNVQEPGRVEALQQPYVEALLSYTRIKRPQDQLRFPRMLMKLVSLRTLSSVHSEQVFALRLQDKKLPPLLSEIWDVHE
Description: as §1, §2, §3

Row | IC50 [1] | IC50 [2] | Compound
1 | 0.02 µM | 0.006 µM | CC1Cc2cc(C(O)(C(F)(F)F)C(F)(F)F)ccc2N1Cc1cccc(CO)c1 (stereo not shown) [Example 50, 1,1,1,3,3,3-hexafluoro-2-[1-(3-hydroxymethyl-benzyl)-2-methyl-2,3-dihydro-1H-indol-5-yl]-propan-2-ol]
2 | 0.03 µM | 0.05 µM | Cc1cc2cc(C(O)(C(F)(F)F)C(F)(F)F)ccc2n1Cc1ccccc1 [Example 80, 2-(1-benzyl-2-methyl-1H-indol-5-yl)-1,1,1,3,3,3-hexafluoro-propan-2-ol]
